Assay [1] has as its target T1, Human cRaf1 (Homo sapiens, UniProt P04049).
T1 construct: poly-histidine (C); made in house
Description: Raf kinase assay (cRaf1 assay / Raf/MEK cascade assay). The assay is classed as biochemical.

Assay [2] deals with HT29 (human colon carcinoma cell line). Description: Cell Based Efficacy (MTT Assay), HT29. As to conditions: HT-29, 72 hours with compound, 50% inhibitory concentration. The procedure:
(§1) The potency of compounds of the invention are tested for their ability to inhibit cell proliferation and cell viability. The metabolic conversion of 3-(4,5-dimethylthiazol-2-yl)-2,5-diphenyltetrazolium bromide (MTT, Sigma #M2128) to a reduced form is a commonly used measure of cellular viability. Following is the procedure:
(§2) Cells are maintained in 75 cm^2 tissue culture flasks until ready for use. The cells are grown and plated for the assay in Dulbecco's modified Eagle's media containing 10% fetal bovine serum. For example, the following cell lines can be used: a) human foreskin fibroblasts (HFF), b) HT29 (human colon carcinoma cell line), c) MDA-MB-468 (human breast carcinoma cell line), d) RKO (human colon adenocarcinoma cell line), e) SW620 (human colon carcinoma cell line), f) A549 (human lung carcinoma cell line), and g) MIA PACA (human pancreatic carcinoma cell line). Cells are maintained at 37° C. in 10% CO2, 90% humidified air. Cells are plated in 96-well tissue culture plates at the densities listed below. 100 μL of cell suspension is added to each well of the 96-well plate except the top row of the plate which contains no cells and serves as a reference for the spectrophotometer.
(§3) Cells are incubated overnight in Dulbecco's modified Eagle's media containing 10% fetal bovine serum at 37° C. in 10% CO2, 90% humidified air prior to dosing. Cells are dosed in 10 sequential 3-fold dilutions starting at 30 uM depending upon the solubility of the compound. Compounds with solubilities of less than 30 uM are dosed at the highest soluble concentration. Stock solutions of compounds are made in 100% dimethyl sulfoxide (DMSO). Stock solutions are diluted in Dulbecco's modified Eagle's media containing 100 ug/mL gentamicin and 0.3 to 0.6% DMSO at the twice the highest concentration to be placed on the cells. If compounds have been dissolved in DMSO the final concentration of DMSO on the cells is kept below 0.3%. 3-fold serial dilutions are performed on each compound to prepare 10 concentrations of the compound for dosing. 100 μL of diluted compound is added to the 100 μL of media currently on the dish. For each concentration of compound, 2-4 replicate wells are prepared.
(§4) Cells are returned to incubator and allowed to proliferate in the presence of compound for 72 hours before addition of MTT. MTT is prepared in phosphate buffered saline (Irvine Scientific #9240) at a concentration of 2mg/mL. 50 μL per well of MTT solution is added to the 200 μL of media to yield a final concentration of 0.4 mg/mL and plates are returned to the incubator for 4 hours. After 4 hours incubation the media, compound and MTT mixture is aspirated from the plates and 100 μL of 100% DMSO is added to each well in addition to 25 μL of Sorenson's Buffer (0.1M glycine, 0.1M NaCl, pH 10.5). Quantitation of metabolic reduction of MTT in each plate is performed by reading optical density at 570 nm wavelength on a Molecular Devices UVmax microplate reader. Growth inhibition curves and 50% inhibitory concentrations are determined using Microsoft Excel.
(§5) Table 4 illustrates the inhibitory activity of compounds of the present invention against a representative kinase (raf) and the cytotoxicity of compounds of the present invention against a broad range of human tumor cell lines.

For assay [3], the system named is SW620 (human colon carcinoma cell line). Description: Cell Based Efficacy (MTT Assay), SW620. As to conditions: SW-620, 72 hours with compound, 50% inhibitory concentration. The method, then: as §1
as §2, with “spectrophotometer. […]” for “spectrophotometer.”
as §3, §4, §5

Assay [4] has as its system MIA PACA (human pancreatic carcinoma cell line). Description: Cell Based Efficacy (MTT Assay), MIA PACA. As to conditions: MIA PaCa-2, 72 hours with compound, 50% inhibitory concentration. The procedure:
as §1, §2
MIA PACA 3000 cells/well
as §3, §4, §5

Assay [5] has as its system PC-3 (prostate). Description: Cell Based Efficacy (MTT Assay), PC-3. As to conditions: Homo sapiens; 72 hours with compound; 50% inhibitory concentration. The method, then:
as §1, §2, §3, §4, §5

For assay [6], the system named is HT-29 xenograft. Nature of the assay: Anti-tumor study in mice, HT-29 xenograft. Format: in vivo. As to conditions: 5 mg/kg. The procedure:
(§6) Mice are acquired from Taconic Farms and are maintained in Microisolator cages at 72±2° F. with a 12 hour light/dark cycle. Animals are housed at 4 mice per cage (28×17×12 cm ) and are given food and water ad libitum. Animals are numbered through the use of an ear punch or tail tattoo. All animal handling is done in a laminar flow hood.
(§7) Solid tumors are measured by caliper measurement through the skin. Caliper measurements are typically made twice weekly. Tumor weight is calculated using the equation (length×width^2 /2)=mg tumor weight.
(§8) Compounds are prepared in a vehicle consisting of DMSO, Cremophore and PBS.
Drug therapy begins when the average tumor size is approximately 40-50 mg, which usually is day 7 after implant. The dose schedule consists of one dose/day for 5 consecutive days. Drugs are administered at 3 or 4 dose-levels based upon the previously-determined maximally tolerated dose. A vehicle control group is also included. Drugs may be administered by either i.v., i.p., s.c., or oral (p.o.) transdermal routes or other alternative routes. Drugs may be administered via tail vein infusion. The injection volume administered for each mouse is usually 0.01-0.02 mL/g of body weight. In the case of i.v. injections and tail vein infusion animals are restrained in a Broome restrainer during handling. Animal are fasted overnight prior to p.o. dosing. […]

For assay [7], the system named is MDA-MB-468 (human breast carcinoma cell line). Nature of the assay: Cell Based Efficacy (MTT Assay), MDA-MB-468. As to conditions: 72 hours with compound, 50% inhibitory concentration. The method, then:
as §1
as §2, with “spectrophotometer. […]” for “spectrophotometer.”
as §3, §4, §5

For assay [8], the system named is SW620 xenograft. Description: Anti-tumor study in mice, SW620 xenograft. Format: in vivo. Particulars: 50 mg/kg. The method, then:
as §6
SW620, available from the American Type Culture Collection, are grown in media consisting of RPMI 1640 with fetal bovine serum (10%), sodium pyruvate (1.0 mM) and glutamine (2.0 mM). Cells are incubated at 37° C. in 5% CO2. Cells are harvested with trypsin (0.05%), centrifuged, and resuspended in PBS:matrigel (1:1) at 1×10^7 cell/ml.
One of the tumor cell lines used is the colon line SW620. Tumors are initiated by subcutaneous injection of a cell suspension into the right flank of each mouse. The inoculum consists of 2×10^6 cells/mouse/ 0.2 ml in PBS:matrigel (1:1).
as §7, §8
Drug therapy begins when the average tumor size is approximately 40-50 mg, which usually is day 7 after implant. […] Drugs are administered at 3 or 4 dose-levels based upon the previously-determined maximally tolerated dose. […]

Setting [9] is: Table 3, read-out: Raf Kinase activity.

Like-named read-outs stand apart in the source and are kept apart here. A value given as a limit tells only on which side of the number the result lay.

T1 sequence (P04049 whole entry): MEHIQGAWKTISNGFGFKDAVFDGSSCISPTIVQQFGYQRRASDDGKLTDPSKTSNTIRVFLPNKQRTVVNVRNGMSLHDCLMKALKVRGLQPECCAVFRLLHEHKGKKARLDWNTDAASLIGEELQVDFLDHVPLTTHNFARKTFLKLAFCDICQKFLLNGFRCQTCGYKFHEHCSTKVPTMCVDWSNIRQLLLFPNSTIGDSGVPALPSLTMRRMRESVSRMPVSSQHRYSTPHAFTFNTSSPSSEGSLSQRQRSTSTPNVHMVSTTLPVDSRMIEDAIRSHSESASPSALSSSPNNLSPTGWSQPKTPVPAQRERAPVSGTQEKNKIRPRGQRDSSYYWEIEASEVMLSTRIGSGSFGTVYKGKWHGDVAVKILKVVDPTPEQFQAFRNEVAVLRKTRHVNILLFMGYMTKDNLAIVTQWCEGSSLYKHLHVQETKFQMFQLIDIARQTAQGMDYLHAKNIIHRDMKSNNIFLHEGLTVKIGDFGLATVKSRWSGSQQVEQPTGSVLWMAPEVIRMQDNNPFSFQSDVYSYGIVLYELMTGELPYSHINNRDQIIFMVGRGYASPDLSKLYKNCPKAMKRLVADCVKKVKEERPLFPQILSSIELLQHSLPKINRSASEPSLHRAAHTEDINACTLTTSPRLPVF

For `Cc1nc(-c2ccc3c(c2)C(=Cc2cc(Br)c(O)c(Br)c2)C(=O)N3)cs1` [Example 2, 3-(3,5-Dibromo-4-hydroxy-benzylidene)-5-(2-methyl-thiazol-4-yl)-1,3-dihydro-indol-2-one], the IC50 is < 1000 nM in assay [1] (setting [9]); < 500 nM in assay [1] (Table 4, read-out: Raf); 500 to 5000 nM in assay [2]; 500 to 5000 nM in assay [3]; 500 to 5000 nM in assay [4]; 5 to 50 µM in assay [5]. Further, in assay [7], the IC50 lay in the range of 500 to 5000 nM. Further, the “Tumor Response % Inhibition @ mg/kg” value in assay [6] was 50%.
In the case of `CCN(CC)CC(=O)c1ccc2c(c1)C(=Cc1cc(Cl)c(O)c(Cl)c1)C(=O)N2` [Example 85, 3-(3,5-Dichloro-4-hydroxy-benzylidene)-5-(2-diethylamino-acetyl)-1,3-dihydro-indol-2-one], the IC50 in assay [1] (setting [9]) is < 1000 nM. For the same molecule, in assay [8], the “Tumor Response % Inhibition @ mg/kg” value is 40%.

Source of the values: patent US6268391A, “Benzylidene-1,3-dihydro-indol-2-one derivatives a receptor tyrosine kinase inhibitors, particularly of Raf kinases” (Glaxo Wellcome Inc., priority 1997, dated 2001).
